# Values quoted from earlier work as cited in the PKSmart pharmacokinetics tables (Seal et al. 2025).
# Assay: Lombardo, Berellini, Obach 2018, Drug Metab Dispos 46:1466, doi 10.1124/dmd.118.082966
# Conditions: human; for clearance / MRT / Vd / half-life: in vivo, iv; for fraction unbound: plasma
compound,measurement,value
NCCCCC(NC(CCc1ccccc1)C(=O)O)C(=O)N1CCCC1C(=O)O (stereo unspecified),clearance,1.2 mL/min/kg
COC(=O)NC(C(=O)N1CCCC1C(=O)Nc1ccc([C@@H]2CC[C@@H](c3ccc(NC(=O)C4CCCN4C(=O)C(NC(=O)OC)C(C)C)cc3)N2c2ccc(C(C)(C)C)cc2)cc1)C(C)C (stereo partly specified),MRT,23.1 h
same,Vd,2.32 L/kg
same,clearance,1.68 mL/min/kg
same,half-life,28.5 h
same,fraction unbound,0.001
CC(C)CN(C[C@@H](O)[C@H](Cc1ccccc1)NC(=O)O[C@H]1CO[C@H]2OCC[C@H]21)S(=O)(=O)c1ccc(N)cc1,clearance,7.81 mL/min/kg
same,half-life,15 h
Cc1cc(Nc2cc(N3CCN(C)CC3)nc(Sc3ccc(NC(=O)C4CC4)cc3)n2)n[nH]1,MRT,4.5 h
same,Vd,5.1 L/kg
same,clearance,18.4 mL/min/kg
same,half-life,8.4 h
C[C@@H](O[C@H]1OCCN(Cc2nc(=O)n(P(=O)(O)O)[nH]2)[C@H]1c1ccc(F)cc1)c1cc(C(F)(F)F)cc(C(F)(F)F)c1,MRT,0.06 h
same,Vd,0.07 L/kg
same,clearance,18.6 mL/min/kg
same,half-life,2.2 h
same,fraction unbound,0.02
CC1=CC[C@@H](C(C)(C)O)C[C@@H]1O,MRT,3.1 h
same,Vd,0.43 L/kg
same,clearance,2.7 mL/min/kg
same,half-life,1.9 h
COc1ccc2[nH]cc(CCNC(C)=O)c2c1,MRT,1.1 h
same,Vd,1.1 L/kg
same,clearance,16.5 mL/min/kg
same,half-life,1.1 h
same,fraction unbound,0.39
CN(C)[C@@H]1C(O)=C(C(=O)NCN2CCCC2)C(=O)[C@@]2(O)C(O)=C3C(=O)c4c(O)cccc4[C@@](C)(O)[C@H]3C[C@@H]12,MRT,9.3 h
same,Vd,0.54 L/kg
same,clearance,0.97 mL/min/kg
same,half-life,8.8 h
same,fraction unbound,0.5
CCOc1ccc(Cc2cc(C3O[C@H](CO)[C@@H](O)[C@H](O)[C@H]3O)ccc2Cl)cc1 (stereo partly specified),MRT,9.5 h
same,Vd,1.7 L/kg
same,clearance,3 mL/min/kg
same,half-life,12.2 h
same,fraction unbound,0.09
NS(=O)(=O)OC[C@@H]1C[C@@H](n2ccc3c(N[C@H]4CCc5ccccc54)ncnc32)C[C@@H]1O,MRT,6.21 h
same,Vd,3.02 L/kg
same,clearance,8.1 mL/min/kg
same,half-life,5.62 h
CCC1=C[C@@H]2CN(CCc3c([nH]c4ccccc34)[C@@](C(=O)OC)(c3cc4c(cc3OC)N(C)[C@H]3[C@@](O)(C(=O)OC)[C@H](OC(C)=O)[C@]5(CC)C=CCN6CC[C@]43[C@@H]65)C2)C1,MRT,17 h
same,Vd,12 L/kg
same,clearance,12 mL/min/kg
same,half-life,18 h
O=C1CCC(N2C(=O)c3ccccc3C2=O)C(=O)N1 (stereo unspecified),MRT,4.3 h
same,Vd,0.95 L/kg
same,clearance,3.4 mL/min/kg
same,half-life,4.7 h
same,fraction unbound,0.4
COCCCC/C(=N\OCCN)c1ccc(C(F)(F)F)cc1,MRT,12.3 h
same,Vd,23.5 L/kg
same,clearance,31.9 mL/min/kg
same,half-life,12.5 h
same,fraction unbound,0.2
C[C@@]1(Cn2ccnn2)C(C(=O)O)N2C(=O)C[C@H]2S1(=O)=O (stereo partly specified),MRT,0.89 h
same,Vd,0.26 L/kg
same,clearance,4.81 mL/min/kg
same,half-life,0.97 h
same,fraction unbound,0.7
CCCNc1nc(NCCC)nc(N(C)OC)n1,MRT,3.04 h
same,Vd,2.17 L/kg
same,clearance,11.9 mL/min/kg
same,half-life,5.61 h
CN[C@H]1CN(c2ccc3c(=O)c(C(=O)O)cn(-c4nccs4)c3n2)C[C@@H]1OC,MRT,30.6 h
same,Vd,1.46 L/kg
same,clearance,0.79 mL/min/kg
same,half-life,25.5 h
COc1ccc(CC(NC(=O)CC(C)(C)N)C(=O)NC(Cc2c[nH]cn2)C(=O)N[C@@H](CC2CCCCC2)[C@@H](O)[C@@H](O)CC(C)C)cc1 (stereo partly specified),MRT,3.1 h
same,Vd,0.11 L/kg
same,clearance,0.45 mL/min/kg
same,half-life,1.72 h
same,fraction unbound,0.07
CCCCC[C@H](O)/C=C/[C@@H]1C(CCCCCCC(=O)O)C(=O)C[C@H]1O (stereo partly specified),MRT,0.9 h
same,Vd,2.4 L/kg
same,clearance,45.4 mL/min/kg
same,half-life,1.9 h
NC(=O)C1CC[C@@H]2CN1C(=O)N2OS(=O)(=O)O (stereo partly specified),MRT,1.4 h
same,Vd,0.24 L/kg
same,clearance,2.76 mL/min/kg
same,half-life,1.7 h
same,fraction unbound,0.93
CC(C)(S)C(N)C(=O)O (stereo unspecified),MRT,1.97 h
same,Vd,1.26 L/kg
same,clearance,10.7 mL/min/kg
same,half-life,3.04 h
same,fraction unbound,0.12
CNCc1ccc(-c2[nH]c3cc(F)cc4c3c2CCNC4=O)cc1,MRT,12.7 h
same,Vd,3.28 L/kg
same,clearance,4.31 mL/min/kg
same,half-life,16.6 h
O=C1NC(=O)C(c2ccccc2)(c2ccccc2)N1,MRT,17.6 h
same,Vd,0.43 L/kg
same,clearance,0.37 mL/min/kg
same,half-life,16.8 h
same,fraction unbound,0.13
C=CC(=O)N1CCCC(n2nc(-c3ccc(Oc4ccccc4)cc3)c3c(N)ncnc32)C1 (stereo unspecified),fraction unbound,0.03
CCCC[S@](=N)(=O)CCC(N)C(=O)O (stereo partly specified),MRT,1.9 h
same,Vd,0.26 L/kg
same,clearance,2.28 mL/min/kg
same,half-life,1.68 h
CCN(CC)C(=O)N[C@H]1C=C2c3cccc4[nH]cc(c34)C[C@H]2N(C)C1,MRT,2.17 h
same,Vd,1.73 L/kg
same,clearance,13.3 mL/min/kg
same,half-life,1.8 h
CC(Oc1ccc(Oc2cnc3ccc(Cl)cc3n2)cc1)C(=O)O (stereo unspecified),MRT,63 h
same,Vd,0.19 L/kg
same,clearance,0.05 mL/min/kg
same,half-life,48.2 h
same,fraction unbound,0.0036
CN(CC(N)=O)C(=O)N(CCCl)N=O,MRT,1.4 h
same,Vd,0.76 L/kg
same,clearance,9 mL/min/kg
same,half-life,1 h
CCCCCNC(=N)NN=Cc1c[nH]c2ccc(OC)cc12,MRT,4.9 h
same,Vd,5.3 L/kg
same,clearance,18 mL/min/kg
same,half-life,11 h
Cc1ncsc1CCCl,MRT,3.3 h
same,Vd,6.6 L/kg
same,clearance,33 mL/min/kg
same,half-life,4.5 h
same,fraction unbound,0.36
COc1cc(Cc2cnc(N)nc2N)c2cc(Cc3c(C(=O)N(C)C)[nH]c4ccc(Cl)cc34)oc2c1OC,MRT,11.3 h
same,Vd,5.06 L/kg
same,clearance,7.49 mL/min/kg
same,half-life,44.5 h
CO[C@@H]1C[C@@](C)(O)Cc2cc3c(c(O)c21)C(=O)c1c(O)cc2c(c1C3=O)O[C@@H]1O[C@]2(C)[C@@H](O)[C@@H](N(C)C)[C@@H]1O,MRT,13.1 h
same,Vd,9.14 L/kg
same,clearance,11.6 mL/min/kg
same,half-life,13.2 h
CN1CCN(CCCCN2C(=O)CN(/N=C/c3ccc(-c4ccc(Cl)cc4)o3)C2=O)CC1,MRT,100 h
same,Vd,13 L/kg
same,clearance,2.4 mL/min/kg
same,half-life,79 h
same,fraction unbound,0.06
CC1(C)CC[C@]2(C(=O)O)CC[C@]3(COC(=O)C=Cc4cc(O)ccc4NC(=O)/C=C/C(=O)O)C(=CC[C@@H]4[C@@]5(C)CCC(=O)C(C)(C)[C@@H]5CC[C@]43C)[C@@H]2C1,MRT,3.18 h
same,Vd,1.45 L/kg
same,clearance,7.6 mL/min/kg
CC(CN1CCN(CCOCCO)CC1)CN1c2ccccc2Sc2ccccc21 (stereo unspecified),MRT,4.16 h
same,Vd,4.06 L/kg
same,clearance,16.3 mL/min/kg
same,half-life,3.11 h
CCn1cc(C(=O)O)c(=O)c2cc(F)c(N3CCN[C@@H](C)C3)c(F)c21,MRT,7.89 h
same,Vd,2.04 L/kg
same,clearance,3.98 mL/min/kg
same,half-life,8.1 h
